Reference: patent publication US5563037A, “Homogeneous method for assay of double-stranded nucleic acids using fluorescent dyes and kit useful therein” (Johnson & Johnson Clinical Diagnostics, Inc., priority 1995, dated 1996)
Several values for one entry are separate records, joined by “and”; a condition that tells them apart may be missing. Equal entries are not always repeated.

Experiments:
Format in all cases: biochemical
HIV-I DNA [1] = test: Example 2: leuco dye color scores of amplified target in pouches; conditions: dye added prior to amplification
Protocol: (§1) The method of this invention was compared to an amplification and detection method outside the scope of this invention, which was carried out using YOYO-1 (1 μmolar final concentration), a tetravalent fluorescent dye, in the buffered solution described above. This dye has the following structure: [drawing 4]
Amplification was carried out using self-contained chemical pouches such as those described in U.S. Pat. No. 5,229,297 (Schnipelsky et al). Those pouches contained the capture probe SEQ ID NO:5 attached to particles which were immobilized in a detection channel where reactions can take place.
The pouches were loaded with reagents, as follows:
(§2) The PCR reaction mixture of Example 1 (except the DNA polymerase) was made to a volume of 5472 μl. The resulting mixture was aliquoted into tubes A, B and C (1824 μl each) representing Samples A, B and C, respectively.
(§3) The sample in Tube A was diluted with buffer (220 μl) and subjected to amplification without any fluorescence dye present. The dye was added at the end of amplification for quantitative detection of the resulting products.
(§4) In addition to the PCR reagents, the sample in Tube B contained YOYO-1 fluorescent dye (0.1 μmolar) which had been added prior to amplification (220 μl of a 10 μmolar solution).
(§5) The sample in Tube C also contained YO-PRO-1 fluorescent dye (0.1 μmolar) which had been added prior to amplification (220 μl of a 10 μmolar solution).
(§6) The DNA polymerase (88 μl) and target HIV-I DNA target nucleic acid (220 μl) were then added to each tube, and the contents of the each of the three tubes were used to fill the PCR reagent compartment of eight pouches.
Amplification was carried out using the same procedures as in Example 1. The PCR protocol was similarly carried out for 40 cycles using a thermal cycler as follows:
1) Preheat to denature at 95° C. for 60 seconds,
priming and extension for 40 seconds at 63.5° C., and denaturation for 10 seconds at 95° C., and
3) final denaturation for 60 seconds at 95° C.
(§7) The results of amplification were detected in three ways: (1) color dye scores visually evaluated as 0 (no signal) to 10 (highest signal density), (2) ethidium bromide stained electrophoretic gels, and (3) fluorescence measured on a commercially available Perkin Elmer fluorimeter.
The noted color scores were obtained by using immobilized capture probes in the pouches with which the amplified target hybridized during incubation for 5 minutes at 42° C. The immobilized target was contacted with the conjugate solution (identified above) for 1 minute at 30° C., followed by the wash solution for 1 minute at 55° C. The leuco dye solution was then added at 30° C. and the resulting color signal was observed after two minutes incubation at 30° C. […]

HIV-I DNA [2] = test: Example 2: ethidium bromide stained electrophoretic gels of amplification products; conditions: dye added prior to amplification
Protocol: The method of this invention was compared to an amplification and detection method outside the scope of this invention, which was carried out using YOYO-1 (1 μmolar final concentration), a tetravalent fluorescent dye, in the buffered solution described above. This dye has the following structure: [drawing 4] The PCR reaction mixture of Example 1 (except the DNA polymerase) was made to a volume of 5472 μl. The resulting mixture was aliquoted into tubes A, B and C (1824 μl each) representing Samples A, B and C, respectively. The sample in Tube A was diluted with buffer (220 μl) and subjected to amplification without any fluorescence dye present. The dye was added at the end of amplification for quantitative detection of the resulting products. In addition to the PCR reagents, the sample in Tube B contained YOYO-1 fluorescent dye (0.1 μmolar) which had been added prior to amplification (220 μl of a 10 μmolar solution). The sample in Tube C also contained YO-[…] fluorescent dye (0.1 μmolar) which had been added prior to amplification (220 μl of a 10 μmolar solution). The DNA polymerase (88 μl) and target HIV-I DNA target nucleic acid (220 μl) were then added to each tube, and the contents of the each of the three tubes were used to fill the PCR reagent compartment of eight pouches. Amplification was carried out using the same procedures as in Example 1. […] follows: The results of amplification were detected in three ways: (1) color dye scores visually evaluated as 0 (no signal) to 10 (highest signal density), (2) ethidium bromide stained electrophoretic gels, and (3) fluorescence measured on a commercially available Perkin Elmer fluorimeter. Electrophoresis was carried out using commercially available NuSieve 1.5%/Seakem Agarose 1% gels (modified to 2.5% agarose) and ethidium bromide stain. The samples were applied to the gels in conventional TBE buffer (4 μl/100 μl). Three replicate assays of each sample (A, B and C) were carried out using each detection means. The average result for each detection means was as follows: […]

HIV-I DNA [3] = test: Example 2: fluorescence of amplification products
Protocol: as §1, §2, §3, §4, §5, §6
Amplification was carried out using the same procedures as in Example 1. […]
as §7
Three replicate assays of each sample (A, B and C) were carried out using each detection means. The average result for each detection means was as follows:
Fluorescent signal was generated using a Perkin-Elmer LS-5B fluorimeter, at the following wavelengths for both dyes:
Each amplification product mixture was diluted 100× into a solution of each dye (1 μmolar final concentration). Background signals were obtained from a mixture of amplification reagent mixture and each dye.

HIV-I DNA [4] = test: Example 3: fluorescence after amplification with dye; usefulness / PCR inhibition
Protocol: The primers used in Example 3 had the following sequences which are complementary to the gag region of HIV-I DNA: Amplification experiments like those of Example 2 were also carried out to evaluate the usefulness of several other conventional fluorescent dye stains. In these assays, primers identified above as SEQ ID NO:3 and SEQ ID NO:4 were used, as well as the probe identified as SEQ ID NO:6. […] Fluorescence was determined as described in Example 2 except that all amplified samples were mixed with a solution of YOYO-1 (0.1 μmolar) to provide a common minimum threshold of signal.

C[n+]1c(C=C2C=CN(CCC[N+](C)(C)C)c3ccccc32)oc2ccccc21 [Compound E]
effect of dye on amplification (color scores) (HIV-I DNA [1]): not adversely affected | Average Color Score (HIV-I DNA [1]; leuco dye, 0 (no signal) to 10 (highest signal density), 40 cycles): 6 | effect of dye on amplification (gel) (HIV-I DNA [2]): allowed amplification to proceed | Positive/negative Gel Bands (HIV-I DNA [2]; 40 cycles): 5 Positives out of 5 bands | Fluorescence, dye added after amplification (Sample A) (HIV-I DNA [3]; Sample A, dye added after amplification, replicates, 491/509 nm, listed as YO-PRO-1): 3.6 Fluorescent Units and 3.7 Fluorescent Units and 3.4 Fluorescent Units and 3.0 Fluorescent Units | Background fluorescence (HIV-I DNA [3]; amplification reagent mixture and dye, excitation 491 nm, emission 509 nm): 0.03 Fluorescent Units | effect of dye on amplification / overall signal (HIV-I DNA [3]; comparison of the two dyes (fluorescence)): lower overall signal | Fluorescence, dye present during amplification (Samples B, C) (HIV-I DNA [3]; dye added prior to amplification, replicates, 491/509 nm, listed as YO-PRO-1): 3.7 Fluorescent Units and 3.5 Fluorescent Units and 3.6 Fluorescent Units and 3.2 Fluorescent Units and 2.8 Fluorescent Units | signal and use of dye during amplification (HIV-I DNA [3]; dye included in reagent mixture during amplification): can be included in the reagent mixture during amplification | Fluorescent Signal (HIV-I DNA [4]; amplified samples mixed with YOYO-1 (0.1 μmolar)): 16 | usefulness of dye / inhibition of PCR (HIV-I DNA [4]; dye in amplification): useful
